{"source": "patent US20040229791A1", "about": "“Compositions and methods of modulating TGF-beta activity by fatty acids” (priority 2002, published 2004)", "key": {"[1]": {"molecular_target": "T1, α2M* and nerve growth factor (NGF) (Homo sapiens, UniProt P01023)", "T1 sequence (P01023 24-1474)": "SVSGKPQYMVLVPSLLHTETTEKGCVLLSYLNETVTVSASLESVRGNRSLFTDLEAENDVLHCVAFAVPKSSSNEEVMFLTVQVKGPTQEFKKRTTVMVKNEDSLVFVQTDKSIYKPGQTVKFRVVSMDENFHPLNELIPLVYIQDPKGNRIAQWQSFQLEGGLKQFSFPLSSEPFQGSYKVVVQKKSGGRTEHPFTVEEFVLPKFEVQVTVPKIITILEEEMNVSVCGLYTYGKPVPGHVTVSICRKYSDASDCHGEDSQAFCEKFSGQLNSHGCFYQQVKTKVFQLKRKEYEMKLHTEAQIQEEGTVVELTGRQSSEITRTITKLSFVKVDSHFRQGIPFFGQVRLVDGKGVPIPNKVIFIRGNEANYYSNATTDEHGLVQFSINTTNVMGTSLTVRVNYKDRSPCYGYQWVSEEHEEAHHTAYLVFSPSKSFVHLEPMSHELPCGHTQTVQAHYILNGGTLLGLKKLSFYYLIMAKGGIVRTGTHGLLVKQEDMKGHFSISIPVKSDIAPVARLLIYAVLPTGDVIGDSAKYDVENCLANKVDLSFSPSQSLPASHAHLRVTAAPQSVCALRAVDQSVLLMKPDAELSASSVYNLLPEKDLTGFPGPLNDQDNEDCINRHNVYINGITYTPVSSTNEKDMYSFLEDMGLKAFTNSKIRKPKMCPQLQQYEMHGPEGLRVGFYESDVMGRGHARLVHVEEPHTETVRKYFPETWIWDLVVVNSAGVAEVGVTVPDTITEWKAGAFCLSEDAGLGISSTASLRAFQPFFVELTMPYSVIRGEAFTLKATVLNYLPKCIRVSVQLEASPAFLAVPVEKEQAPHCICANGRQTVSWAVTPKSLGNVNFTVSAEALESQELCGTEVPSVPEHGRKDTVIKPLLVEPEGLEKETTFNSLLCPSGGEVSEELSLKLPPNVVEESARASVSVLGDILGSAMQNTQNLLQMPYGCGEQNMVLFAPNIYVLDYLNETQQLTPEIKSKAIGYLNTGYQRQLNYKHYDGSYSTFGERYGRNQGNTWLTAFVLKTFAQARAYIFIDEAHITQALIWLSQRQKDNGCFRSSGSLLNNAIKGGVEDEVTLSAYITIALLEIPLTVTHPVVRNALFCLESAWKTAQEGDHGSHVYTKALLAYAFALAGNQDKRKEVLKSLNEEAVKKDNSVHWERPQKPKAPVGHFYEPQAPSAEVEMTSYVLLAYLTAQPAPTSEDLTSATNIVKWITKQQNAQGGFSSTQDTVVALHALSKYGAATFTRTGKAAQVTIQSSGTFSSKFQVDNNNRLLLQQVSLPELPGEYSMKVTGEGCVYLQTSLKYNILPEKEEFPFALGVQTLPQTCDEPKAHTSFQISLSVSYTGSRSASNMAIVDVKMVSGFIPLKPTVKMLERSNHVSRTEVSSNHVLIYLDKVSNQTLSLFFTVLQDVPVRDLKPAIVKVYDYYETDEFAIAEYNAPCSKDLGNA", "test": "Complex formation between α2M* and nerve growth factor", "assay_type": "binding"}, "[2]": {"molecular_target": "T2, α2M* and basic fibroblast growth factor (bFGF) (Homo sapiens, UniProt P01023)", "T2 sequence (P01023 24-1474)": "T1 sequence (P01023 24-1474)", "test": "Complex formation between α2M* and basic fibroblast growth factor", "assay_type": "binding"}, "[3]": {"molecular_target": "T3, native α2M (Homo sapiens, UniProt P01023)", "T3 construct": "was purified from pooled citrate-treate human plasma; from tissue; host or cells: pooled citrate-treated human plasma", "T3 sequence (P01023 24-1474)": "T1 sequence (P01023 24-1474)", "test": "Gel filtration of 3H-arachidonic acid with native α2M", "assay_type": "binding", "conditions": "100 μM 3H-arachidonic acid", "description": "The interaction of ^3H-arachidonic acid and α2M* was determined using gel filtration. ^3H-arachidonic acid was incubated with native ? 2M or ? 2M*, which was activated by methylamine. After incubation at room temperature for 30 min, the reaction mixture was subjected to gel filtration chromatography on Sephacryl® S-300 HR. The ^3H-arachidonic acid radioactivity and concentrations of. α2M* or native ? 2M in the eluents were determined by scintillation counting and 5% SDS-PAGE followed by Coomassie blue staining, respectively. […] The small peak, which appeared in the flow-through fractions, contained the ^3H-arachidonic acid- ? 2M* complex and free ? 2M*, which was identified by Coomassie blue staining (FIG. 5, inset). The subsequent large peak, which appeared in the column bed volume fractions, was identified as free ^3H-arachidonic acid.\nGel Filtration of ^3H-arachidonic acid-α2M* Complexes—The reaction mixture contained 100 μM ^3H-arachidonic acid with or without 10 μg of ? 2M*, which was activated by methylamine and plasmin as described previously (12,22), or native ? […] The column was then eluted with the same phosphate buffer and the fractional volume was ˜1 ml, 20 μl of which was counted with a scintillation counter and an another 20 μl of which was analyzed by SDS-PAGE followed by Coomassie blue staining (to locate fractions containing. α2M* or native ? 2M)."}, "[4]": {"tested_on": "p3TP-Lux in transfected Mv1Lu cells", "test": "Luciferase assay, p3TP-Lux TGF-β-responsive promoter construct", "assay_type": "cell-based, mink", "conditions": "for reversal of α2M* inhibition of TGF-β2-induced luciferase activity: 200 μg/ml α2M*", "description": "One of the prominent biological activities of TGF- ? is transcriptional activation of plasminogen activator inhibitor-1 (PAI-1) and fibronectin (1-4). The effect of fatty acids on the inhibition by. α2M* of a TGF- ? -responsive promoter construct p3TP-Lux was determined in transfected Mv1Lu cells. The p3TP-Lux contains the PAI-1 promoter and 3 repeats of a phorbol-12-myristate-13-acetate (TPA)-responsive element (29).\nLuciferase Assay—Mv1Lu cells which had been plated on 12-well clustered dishes at a cell density of approximately 0.8-1.0×10^5 cells/plate were transfected with 4-6 μg of p3TP-Lux using the calcium phosphate method (24). After 12 hr, the transfected cells were washed with phosphate buffered saline and allowed to grow in a medium containing 10% fetal calf serum for 12 hr. The medium was changed to DMEM with low serum concentration (0.2% fetal calf serum) and the cells were incubated for 4-6 hr. The cells were then treated for 20 hr with TGF-.β2 (0, 50 or 100 pM), α2M* (0 or 200 μg/ml) and arachidonic acid (0, 12.5 or 25 μM) in the same low-serum medium. The cells were harvested and assayed for luciferase activity using the Promega kit according to the manufacturer's protocol. The luciferase activity was assayed in triplicate cell cultures and measured as arbitrary units (A.U.)."}, "[5]": {"molecular_target": "T4, 125I-TGF-β2-α2M* complex (Homo sapiens, UniProt P01023)", "T4 construct": "was purified from pooled citrate-treate human plasma; from tissue; host or cells: pooled citrate-treated human plasma", "T4 sequence (P01023 24-1474)": "T1 sequence (P01023 24-1474)", "test": "Dissociation of preformed 125I-TGF-β2-α2M* complex", "assay_type": "binding", "conditions": "added after 30 min preincubation of complex"}}, "data": [{"molecule": "CCCCC/C=C\\C/C=C\\C/C=C\\C/C=C\\CCCC(=O)O", "note": "[arachidonic acid]", "values": [{"measurement": "blocking of complex formation between α2M* and NGF", "setting": "[1]", "result": "block complex formation"}, {"measurement": "blocking of complex formation between α2M* and bFGF", "setting": "[2]", "result": "block complex formation"}, {"measurement": "complex formation with native α2M", "setting": "[3]", "result": "no complex formation"}, {"measurement": "reversal of α2M* inhibition of TGF-β2-induced luciferase activity", "setting": "[4]; 12.5 μM arachidonic acid", "result": "completely reversed"}, {"measurement": "reversal of α2M* inhibition of TGF-β2-induced luciferase activity", "setting": "[4]; 25 μM arachidonic acid", "result": "completely reversed"}, {"measurement": "effect on luciferase activity in cells treated with and without TGF-β2 in the absence of α2M*", "setting": "[4]; 12.5 and 25 μM, absence of α2M*", "result": "did not influence the luciferase activity"}, {"measurement": "concentration dissociating the 125I-TGF-β2-α2M* complex", "setting": "[5]", "result": 250, "unit": "µM"}]}]}
